Peptide text beside a SMILES is read from it. * marks the point of attachment. Cbz = O=C(OCc1ccccc1)*
System: proteasome
Type: cell-based

## CC(C)C[C@@H](C=O)NC(=O)[C@H](CC(C)C)NC(=O)[C@H](CC(C)C)NC(=O)OCc1ccccc1 [MG132] (Cbz-Leu-Leu-Leu-aldehyde)
  level of C-terminal (P9-luciferase) fragment produced by BoNT/A proteolysis: accumulated

Source: patent US20150329896A1, “N-END RULE PROTEASE ACTIVITY […] AND USES THEREOF” (priority 2010, published 2015)
